This note sets out measurements from ChEMBL document CHEMBL1146250, “Synthesis and antimicrobial activity of 7-fluoro-3-aminosteroids” (2007).

In brackets after ≈: the same amount, converted by molar mass.

In test [1] the test system is Streptococcus pyogenes. Kind of test: Antimicrobial activity against Streptococcus pyogenes 77A. The class given is functional.
Test [2] has as its system Pseudomonas aeruginosa. Kind of test: Antimicrobial activity against Pseudomonas aeruginosa 1771M. The format is functional.
Test [3] relates to Pseudomonas aeruginosa. Kind of test: Antimicrobial activity against Pseudomonas aeruginosa 9027. The class given is functional.
For another test, the system named is Staphylococcus aureus. Kind of test: Antimicrobial activity against Staphylococcus aureus 503. The class given is functional.
Another test deals with Salmonella typhimurium. Kind of test: Antimicrobial activity against Salmonella Typhimurium. The class given is functional, Salmonella enterica subsp. enterica serovar Typhimurium. The settings on record: Salmonella enterica.
The next test relates to Escherichia coli. Kind of test: Antimicrobial activity against Escherichia coli DC2. The class given is functional.
In test [4] the test system is Streptococcus pyogenes. Kind of test: Antimicrobial activity against Streptococcus pyogenes 308A. The format is functional.
The subject of a further test is Enterobacter cloacae. Kind of test: Antimicrobial activity against Enterobacter cloacae 1321E. The format is functional.

As a reminder, the MIC is the lowest concentration that inhibits growth of the organism.

As for `C[C@@H](CO)[C@H]1CC[C@H]2[C@@H]3[C@H](O)C[C@H]4C[C@@H](NCCCNCCCCN)CC[C@]4(C)[C@H]3CC[C@]12C`, the minimal inhibitory concentration (MIC) was 25 µg/mL (≈ 52.3 µM) against Streptococcus pyogenes [1]; 25 µg/mL (≈ 52.3 µM) with Pseudomonas aeruginosa [2]; 12.5 µg/mL (≈ 26.2 µM) with Pseudomonas aeruginosa [3]; 12.5 µg/mL (≈ 26.2 µM) against Staphylococcus aureus; 50 µg/mL (≈ 105 µM) against Salmonella typhimurium; 25 µg/mL (≈ 52.3 µM) in the test with Escherichia coli. In addition, the MIC amounted to 25 µg/mL (≈ 52.3 µM) against Streptococcus pyogenes [4] and 50 µg/mL (≈ 105 µM) in the test on Enterobacter cloacae.

With `CC(CO)[C@H]1CC[C@H]2[C@@H]3[C@@H](F)C[C@H]4C[C@@H](NCCCNCCCCN)CC[C@]4(C)[C@H]3CC[C@]12C` (single isomer, unassigned), the MIC worked out at 12.5 µg/mL (≈ 26.1 µM) in the test with Streptococcus pyogenes [1]; 6.3 µg/mL (≈ 13.1 µM) against Pseudomonas aeruginosa [2]; 12.5 µg/mL (≈ 26.1 µM) in the test with Pseudomonas aeruginosa [3]; 6.3 µg/mL (≈ 13.1 µM) with Staphylococcus aureus; 100 µg/mL (≈ 208 µM) with Salmonella typhimurium; 12.5 µg/mL (≈ 26.1 µM) against Escherichia coli. Besides, the MIC against Streptococcus pyogenes [4] was found to be 12.5 µg/mL (≈ 26.1 µM); in the test with Enterobacter cloacae it was 100 µg/mL (≈ 208 µM).

`C[C@@H](COS(=O)(=O)O)[C@H]1CC[C@H]2[C@@H]3[C@H](O)C[C@H]4C[C@@H](NCCCNCCCCN)CC[C@]4(C)[C@H]3CC[C@]12C`: the MIC against Streptococcus pyogenes [1], in the test on Pseudomonas aeruginosa [2], against Pseudomonas aeruginosa [3], in the test on Staphylococcus aureus, in the test with Salmonella typhimurium and in the test with Escherichia coli was 50 µg/mL (≈ 89.6 µM) throughout. This compound also gave an MIC against Enterobacter cloacae of 50 µg/mL (≈ 89.6 µM).

Consider `CC(CO)[C@H]1CC[C@H]2[C@@H]3[C@@H](F)C[C@H]4C[C@H](NCCCNCCCCN)CC[C@]4(C)[C@H]3CC[C@]12C` (single isomer, unassigned), for which the MIC turned out to be 6.3 µg/mL (≈ 13.1 µM) with Streptococcus pyogenes [1]; 25 µg/mL (≈ 52.1 µM) against Pseudomonas aeruginosa [2]; 12.5 µg/mL (≈ 26.1 µM) against Pseudomonas aeruginosa [3]; 6.3 µg/mL (≈ 13.1 µM) in the test on Staphylococcus aureus; 50 µg/mL (≈ 104 µM) against Salmonella typhimurium; 12.5 µg/mL (≈ 26.1 µM) against Escherichia coli. The values for the MIC against Streptococcus pyogenes [4] and in the test on Enterobacter cloacae were 12.5 µg/mL (≈ 26.1 µM) and 100 µg/mL (≈ 208 µM), respectively.

As for `CC(CO)[C@H]1CC[C@H]2[C@@H]3[C@H](F)C[C@H]4C[C@@H](NCCCNCCCCN)CC[C@]4(C)[C@H]3CC[C@]12C` (single isomer, unassigned), the MIC was 6.3 µg/mL (≈ 13.1 µM) in the test with Streptococcus pyogenes [1]; 3.1 µg/mL (≈ 6.46 µM) against Pseudomonas aeruginosa [2]; 6.3 µg/mL (≈ 13.1 µM) against Pseudomonas aeruginosa [3]; 6.3 µg/mL (≈ 13.1 µM) against Staphylococcus aureus; 100 µg/mL (≈ 208 µM) with Salmonella typhimurium; 6.3 µg/mL (≈ 13.1 µM) with Escherichia coli. The results for the MIC in the test on Streptococcus pyogenes [4] and against Enterobacter cloacae were 6.3 µg/mL (≈ 13.1 µM) and 100 µg/mL (≈ 208 µM), respectively.

On to `CC(COS(=O)(=O)O)[C@H]1CC[C@H]2[C@@H]3[C@@H](F)C[C@H]4C[C@@H](NCCCNCCCCN)CC[C@]4(C)[C@H]3CC[C@]12C` (single isomer, unassigned), for which the MIC with Streptococcus pyogenes [1] is 50 µg/mL (≈ 89.3 µM); against Pseudomonas aeruginosa [2], 50 µg/mL (≈ 89.3 µM); against Pseudomonas aeruginosa [3] it was 50 µg/mL (≈ 89.3 µM); in the test with Staphylococcus aureus, 50 µg/mL (≈ 89.3 µM); in the test on Salmonella typhimurium it was 50 µg/mL (≈ 89.3 µM); against Escherichia coli, 25 µg/mL (≈ 44.7 µM). For the same compound, the MIC in the test with Streptococcus pyogenes [4] and with Enterobacter cloacae was 50 µg/mL (≈ 89.3 µM) each time.

Regarding `CC(COS(=O)(=O)O)[C@H]1CC[C@H]2[C@@H]3[C@H](F)C[C@H]4C[C@H](NCCCNCCCCN)CC[C@]4(C)[C@H]3CC[C@]12C` (single isomer, unassigned), the MIC in the test with Streptococcus pyogenes [1] is 12.5 µg/mL (≈ 22.3 µM); in the test with Pseudomonas aeruginosa [2] it was 50 µg/mL (≈ 89.3 µM); with Pseudomonas aeruginosa [3], 25 µg/mL (≈ 44.7 µM); against Staphylococcus aureus, 12.5 µg/mL (≈ 22.3 µM); against Salmonella typhimurium, 100 µg/mL (≈ 179 µM); in the test on Escherichia coli it was 25 µg/mL (≈ 44.7 µM). In addition, the MIC with Streptococcus pyogenes [4] was found to be 12.5 µg/mL (≈ 22.3 µM); in the test with Enterobacter cloacae, 100 µg/mL (≈ 179 µM).

Consider `CC(CO)[C@H]1CC[C@H]2[C@@H]3CC[C@H]4C[C@@H](NCCCNCCCCN)CC[C@]4(C)[C@H]3CC[C@]12C` (single isomer, unassigned), for which the MIC in the test on Streptococcus pyogenes [1] was 100 µg/mL (≈ 217 µM); with Pseudomonas aeruginosa [2], 6.3 µg/mL (≈ 13.6 µM); against Pseudomonas aeruginosa [3], 12.5 µg/mL (≈ 27.1 µM); with Staphylococcus aureus, 6.3 µg/mL (≈ 13.6 µM); against Salmonella typhimurium, 50 µg/mL (≈ 108 µM); against Escherichia coli it was 12.5 µg/mL (≈ 27.1 µM). Further, the MIC in the test with Streptococcus pyogenes [4] and in the test on Enterobacter cloacae was 100 µg/mL (≈ 217 µM) in each case.

Turning to `CC(COS(=O)(=O)O)[C@H]1CC[C@H]2[C@@H]3[C@H](F)C[C@H]4C[C@@H](NCCCNCCCCN)CC[C@]4(C)[C@H]3CC[C@]12C` (single isomer, unassigned), the MIC amounted to 50 µg/mL (≈ 89.3 µM) against Streptococcus pyogenes [1]; 25 µg/mL (≈ 44.7 µM) with Pseudomonas aeruginosa [2]; 12.5 µg/mL (≈ 22.3 µM) in the test with Pseudomonas aeruginosa [3]; 25 µg/mL (≈ 44.7 µM) against Staphylococcus aureus; 100 µg/mL (≈ 179 µM) against Salmonella typhimurium; 50 µg/mL (≈ 89.3 µM) against Escherichia coli. Also, the MIC came to 50 µg/mL (≈ 89.3 µM) against Streptococcus pyogenes [4] and 100 µg/mL (≈ 179 µM) against Enterobacter cloacae.

In the case of `CC(CO)[C@H]1CC[C@H]2[C@@H]3[C@H](F)C[C@H]4C[C@H](NCCCNCCCCN)CC[C@]4(C)[C@H]3CC[C@]12C` (single isomer, unassigned), the MIC in the test with Streptococcus pyogenes [1] was found to be 12.5 µg/mL (≈ 26.1 µM); with Pseudomonas aeruginosa [2], 100 µg/mL (≈ 208 µM); with Pseudomonas aeruginosa [3] it was 50 µg/mL (≈ 104 µM); in the test with Staphylococcus aureus, 12.5 µg/mL (≈ 26.1 µM); in the test with Salmonella typhimurium it was 100 µg/mL (≈ 208 µM); against Escherichia coli, 50 µg/mL (≈ 104 µM). Also, the MIC in the test with Streptococcus pyogenes [4] is 25 µg/mL (≈ 52.1 µM); with Enterobacter cloacae it was 100 µg/mL (≈ 208 µM).

In the case of `CC(COS(=O)(=O)O)[C@H]1CC[C@H]2[C@@H]3[C@@H](F)C[C@H]4C[C@H](NCCCNCCCCN)CC[C@]4(C)[C@H]3CC[C@]12C` (single isomer, unassigned), the MIC against Streptococcus pyogenes [1] was determined as 12.5 µg/mL (≈ 22.3 µM); in the test with Pseudomonas aeruginosa [2], 50 µg/mL (≈ 89.3 µM); with Pseudomonas aeruginosa [3], 50 µg/mL (≈ 89.3 µM); in the test with Staphylococcus aureus it was 6.3 µg/mL (≈ 11.3 µM); in the test on Salmonella typhimurium, 50 µg/mL (≈ 89.3 µM); against Escherichia coli it was 25 µg/mL (≈ 44.7 µM). Moreover, the values for the MIC in the test on Streptococcus pyogenes [4] and against Enterobacter cloacae were 25 µg/mL (≈ 44.7 µM) and 50 µg/mL (≈ 89.3 µM), respectively.
